Read-outs that look alike come from different tables or passages of the source.
Experiments:
[1] = tested on: subjects with PAD
Description: The primary objective of this early stage clinical study was to evaluate the safety and tolerability of multiple doses of twice daily 40 mg and 80 mg sodium nitrite compared with placebo over a 10 week treatment period. […] Finally, the relationship between doses, plasma concentration of sodium nitrite, and pharmacodynamic effects were characterized and evaluated. In this study, multiple assessments of biological activity and ambulatory function were made during standardized tests of arterial reactivity and claudication-limited exercise. The pharmacodynamic assessments included: brachial artery flow-mediated vasodilation (FMD), six-minute walk test, selected biomarkers of interest, quality of life questionnaires (WIQ & RAND 36).
All doses were given as a twice-daily oral dose for 10 weeks. On the day following the 10 week dosing period and completion of efficacy assessments, subjects in each treatment arm entered a 6 day dose-escalation period (dose-doubling). Subjects in the 40 mg sodium nitrite BID group were dose-escalated to 80 mg sodium nitrite BID for 6 days, and subjects in the 80 mg sodium nitrite BID were dose-escalated to 160 mg sodium nitrite BID for 6-days. Placebo subjects doubled the number of placebo capsules taken BID. All study medication was stopped at the end of the 6-day dose-escalation period.
(§1) The following safety parameters were assessed: medical and medication history, concomitant medication usage, physical examination, vital signs, 12-lead ECG, clinical chemistries, CBC, urinalysis, and adverse events. Urine pregnancy testing was completed for women of child-bearing potential who have not been surgically sterilized. Assessment of acute adverse events (i.e., drop in blood pressure, dizziness) was performed after administration of 1st dose for each dose level of sodium nitrite. Dose-limiting toxicity (DLT) was defined as Grade 3 and clinically significant hematological events, particularly MetHb.
As defined by the International Conference on Harmonisation (ICH), an AE was any untoward medical occurrence in a patient or clinical investigation subject administered an investigational product, whether or not the event was considered related to the investigational product. An AE was therefore any unfavorable and unintended sign (including an abnormal laboratory finding), symptom, or disease (new or exacerbated) temporally associated with the use of the investigational product and was collected starting when IP was administered.

[2] = tested on: subjects with PAD; details: even at the 160 mg dose escalation
Description: as §1

[3] = tested on: subjects with PAD; details: oral BID for 10 weeks vs placebo
Description: Quality of life was measured by two questionnaires: WIQ and RAND 36. The two questionnaires were administered in the same sequence: WIQ first, followed by the RAND 36. The WIQ was a disease-specific instrument that measures community-based walking. The questionnaire consisted of four subscales (pain severity, distance, speed, and stairs). The WIQ was verbally administered to the subject by the Investigator, or designee. The RAND 36 was an instrument that measured general health issues. Study staff directed subjects to complete the RAND 36 on their own. […] No family members or other individuals were allowed to answer questions or complete the questionnaire for the subject. All questionnaires were completed directly on the written source document pages. The study coordinator reviewed all questionnaires to ensure that there was only one response to each question, each question has been answered and any necessary corrections have been initialed and dated by the Investigator (or designee) or subject, accordingly.

[4] = tested on: subjects with PAD; remark: listed apart in the source
From the text: An individual subject was withdrawn at the discretion of the responsible investigator and the site study team for the reasons listed below as well as for other safety reasons that may not be listed. In the event one or more subjects were withdrawn, additional subjects were enrolled to ensure an adequate number of subjects complete the cohort. Specific reasons for an individual subject to withdraw included but was not limited to: • Subjects with a pattern of severe adverse events in any SOC, or cardiac monitoring findings as determined by the investigator and/or the sponsor. • Subjects with methemoglobin value 15% on any one occasion during study participation. • Subjects with normal baseline blood pressure who experienced any of the following: an increase in blood pressure to 160 mm Hg systolic and/or 90 mmHg diastolic that persists over 24 hours, an increase from baseline blood pressure of 30 mm Hg systolic and/or 15 mm Hg diastolic that persists over 24 hours, any symptomatic increase in blood pressure. • Subjects with stable elevated blood pressure at baseline who experienced any of the following: an increase in blood pressure to 180 mm Hg systolic and/or 100 mmHg diastolic that persists over 24 hours, an increase from baseline blood pressure of 20 mm Hg systolic and/or 10 mm Hg diastolic that persists over 24 hours, any symptomatic increase in blood pressure. • Subjects who experienced a decrease from baseline blood pressure of 20 mm Hg systolic with or without an increase of 10 beats per minute (BPM) pulse and the presence of symptoms.
The withdrawal criteria allowed a subject to withdraw from the study at any time at his/her own request. The subject may also have been withdrawn at the Investigator's request if it was the Investigator's opinion that it was not in the subject's best interest to continue in the study. The subject was withdrawn if he or she met stopping criteria described above. In the event a subject was withdrawn from the study for any reason, the subject was followed-up with reasonable effort made to determine the reason for their withdrawal from the study and an ET visit as described above. Telephone calls, certified letters and offers of transportation assistance were considered reasonable effort.

[5] = Six-Day Dose-Escalation Period Only, 40 mg group (escalated to 80 mg BID)
[6] = Six-Day Dose-Escalation Period Only, 80 mg group (escalated to 160 mg BID)

O=NO [sodium nitrite]
Number of TEAEs by Relationship to Study Drug: Not Related ([1]; 40 mg BID): 10
Number of TEAEs by Relationship to Study Drug: Possibly Related ([1]; 40 mg BID): 22
Number of TEAEs by Relationship to Study Drug: Probably Related ([1]; 40 mg BID): 0
Number of TEAEs by Severity: Mild ([1]; 40 mg BID): 26
Number of TEAEs by Severity: Moderate ([1]; 40 mg BID): 6
Number of TEAEs by Relationship to Study Drug: Not Related ([1]; 80 mg BID): 9
Number of TEAEs by Relationship to Study Drug: Possibly Related ([1]; 80 mg BID): 24
Number of TEAEs by Relationship to Study Drug: Probably Related ([1]; 80 mg BID): 6
Number of TEAEs by Severity: Mild ([1]; 80 mg BID): 31
Number of TEAEs by Severity: Moderate ([1]; 80 mg BID): 8
Number (%) of Subjects with at least one AE ([1]; Overall, 40 mg BID): 12(63.2%)
Number (%) of Subjects with at least one TEAE ([1]; Overall, 40 mg BID): 12(63.2%)
Number of AEs ([1]; Overall, 40 mg BID): 32
Number of SAEs ([1]; Overall, 40 mg BID): 0
Number of TEAEs ([1]; Overall, 40 mg BID): 32
Number (%) of Subjects with at least one AE ([1]; Overall, 80 mg BID): 14(7738%)
Number (%) of Subjects with at least one TEAE ([1]; Overall, 80 mg BID): 14(7738%)
Number of AEs ([1]; Overall, 80 mg BID): 40
Number of SAEs ([1]; Overall, 80 mg BID): 0
Number of TEAEs ([1]; Overall, 80 mg BID): 39
Number (5) of Subjects with at least one TEAE [1, 5]: 3(15.8%)
Number of TEAEs [1, 5]: 3
Number (5) of Subjects with at least one TEAE [1, 6]: 7(38.9%)
Number of TEAEs [1, 6]: 11
Severe adverse effects ([1]; treated groups overall): no severe adverse effects were observed
Methemoglobin levels [2]: of no concern
WIQ assessment in walking distance [3]: no change
WIQ stair climbing [3]: trend toward improvement
WIQ walking speed [3]: trend toward improvement
RAND 36 quality of life assessment ([3]; sentence names the 40 mg group): trend toward improvement
Subjects who completed the study ([4]; 40 mg, n = 19): 17 (89.5%)
Subjects who withdrew prior to completion ([4]; 40 mg, n = 19): 2 (10.5%)
Withdrawal: Adverse Event ([4]; 40 mg, n = 19): 1 (5.3%)
Withdrawal: Met withdrawal-new hypotension ([4]; 40 mg, n = 19): 0 (0.0%)
Withdrawal: Subject Request-lack of energy ([4]; 40 mg, n = 19): 1 (5.3%)
Withdrawal: Subject request- no benefit ([4]; 40 mg, n = 19): 0 (0.0%)
Withdrawal: Subject request-refused to continue ([4]; 40 mg, n = 19): 0 (0.0%)
Subjects who completed the study ([4]; 80 mg, n = 18): 15 (83.3%)
Subjects who withdrew prior to completion ([4]; 80 mg, n = 18): 3 (16.7%)
Withdrawal: Adverse Event ([4]; 80 mg, n = 18): 2 (11.1%)
Withdrawal: Met withdrawal-new hypotension ([4]; 80 mg, n = 18): 1 (5.6%)
Withdrawal: Subject Request-lack of energy ([4]; 80 mg, n = 18): 0 (0.0%)
Withdrawal: Subject request- no benefit ([4]; 80 mg, n = 18): 0 (0.0%)
Withdrawal: Subject request-refused to continue ([4]; 80 mg, n = 18): 0 (0.0%)

From patent US9561249B2, “Pharmaceutical formulations of nitrite and uses thereof” (TheraVasc Inc., priority 2013, dated 2017)
